Data taken from patent US20220142941A1, “COMBINATION THERAPEUTIC REGIMENS WITH 1,6-DIBROMO-1,6-DIDEOXY-DULCITOL” (Eleison Pharmaceuticals LLC, priority 2019, published 2022).

Key:
Assay in all cases: DBD combination treatment, viability enhancement factor
Format in all cases: cell-based, human
GS102periNS = GS102periNS (p20 + p21), labelled therapy combined with crystalline DBD polymorph
Description: (§1) Crystalline DBD polymorph treatment was combined with chemotherapy, radiotherapy and targeted inhibitors to determine whether the crystalline DBD polymorph form could: enhance efficacy of the conventional therapies; enhance efficacy when combined with newer ‘targeted’ therapies; or would make (a subset of) cultures more sensitive to this treatment.
(§2) Therefore, cultures were treated with: • a.

GS104periNS = GS104periNS (p21 + p22), labelled therapy combined with crystalline DBD polymorph
Description: as §1, §2

GS184NS = GS184NS (p18 + p19), labelled therapy combined with crystalline DBD polymorph;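 further: DBD at its own IC50 and half IC50 determined at Day 5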
Description: as §1, §2

GS186coreNS = GS186coreNS (p18), labelled therapy combined with crystalline DBD polymorph
Description: as §1, §2

GS186periNS = GS186periNS (p15), labelled therapy combined with crystalline DBD polymorph
Description: as §1, §2

GS203NS = conditions: Day 8; GS203NS (P19 + p18); labelled therapy combined with crystalline DBD polymorph
Description: as §1, §2

GS224NS = GS224NS (p17), labelled therapy combined with crystalline DBD polymorph
Description: as §1, §2

GS245NS = GS245NS (p16 + p15), labelled therapy combined with crystalline DBD polymorph
Description: as §1, §2

GS249NS = GS249NS (p17), labelled therapy combined with crystalline DBD polymorph
Description: as §1, §2

GS257NS = GS257NS (p16 + p17), labelled therapy combined with crystalline DBD polymorph;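 further: DBD at its own IC50 and half IC50 determined at Day 5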
Description: as §1, §2

GS261NS = GS261NS (p13), labelled therapy combined with crystalline DBD polymorph
Description: as §1, §2

GS279coreNS = conditions: Day 5; GS279coreNS (p12 + p13); labelled therapy combined with crystalline DBD polymorph
Description: as §1, §2

GS279periNS = GS279periNS (p16 + p15), labelled therapy combined with crystalline DBD polymorph;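 further: DBD at its own IC50 and half IC50 determined at Day 5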
Description: as §1, §2

GS281NS = GS281NS (p15), labelled therapy combined with crystalline DBD polymorph
Description: as §1, §2

GS289NS = GS289NS (p15 + p16), labelled therapy combined with crystalline DBD polymorph;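 further: DBD at its own IC50 and half IC50 determined at Day 5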
Description: as §1, §2

GS304NS = GS304NS (p16), labelled therapy combined with crystalline DBD polymorph
Description: as §1, §2

GS323periNS = conditions: Day 5; GS323periNS (p20 + p19); labelled therapy combined with crystalline DBD polymorph
Description: as §1, §2

GS324coreNS = GS324coreNS (p19), labelled therapy combined with crystalline DBD polymorph
Description: as §1, §2

GS359NS = GS359NS (p15 + p14), labelled therapy combined with crystalline DBD polymorph
Description: as §1, §2

GS365NS = GS365NS (p17 + p16), labelled therapy combined with crystalline DBD polymorph
Description: as §1, §2

In the case of Cc1[nH]c2ccccc2c1CCNCc1ccc(/C=C/C(=O)NO)cc1 [Panobinostat], the “enhancement factor (viability % of most effective monotherapy divided by viability % of combination)” value (GS102periNS; Day 5) is reported as 1.591, the “enhancement factor (viability % of most effective monotherapy divided by viability % of combination)” value (GS102periNS; Day 8) is reported as 3.863 and the “enhancement factor (viability % of most effective monotherapy divided by viability % of combination)” value (GS104periNS; Day 5) is reported as 1.339. For the same compound, the “enhancement factor (viability % of most effective monotherapy divided by viability % of combination)” value (GS104periNS; Day 8) was 1.796, the “enhancement factor (viability % of most effective monotherapy divided by viability % of combination)” value (GS184NS; Day 5) was 1.712 and the “enhancement factor (viability % of most effective monotherapy divided by viability % of combination)” value (GS184NS; Day 8) was 2.357. The “enhancement factor (viability % of most effective monotherapy divided by viability % of combination)” value (GS186coreNS; Day 5) was 2.557, the “enhancement factor (viability % of most effective monotherapy divided by viability % of combination)” value (GS186coreNS; Day 8) was 5.363 and the “enhancement factor (viability % of most effective monotherapy divided by viability % of combination)” value (GS186periNS; Day 5) was 2.105. For the same compound, the “enhancement factor (viability % of most effective monotherapy divided by viability % of combination)” value (GS186periNS; Day 8) was 8.116, the “enhancement factor (viability % of most effective monotherapy divided by viability % of combination)” value (GS203NS) was 1.651 and the “enhancement factor (viability % of most effective monotherapy divided by viability % of combination)” value (GS224NS; Day 5) was 4.399. For the same compound, the “enhancement factor (viability % of most effective monotherapy divided by viability % of combination)” value (GS224NS; Day 8) was 7.387, the “enhancement factor (viability % of most effective monotherapy divided by viability % of combination)” value (GS245NS; Day 5) was 1.129 and the “enhancement factor (viability % of most effective monotherapy divided by viability % of combination)” value (GS245NS; Day 8) was 1.202. For the same compound, the “enhancement factor (viability % of most effective monotherapy divided by viability % of combination)” value (GS249NS; Day 5) was 1.074, the “enhancement factor (viability % of most effective monotherapy divided by viability % of combination)” value (GS249NS; Day 8) was 0.944 and the “enhancement factor (viability % of most effective monotherapy divided by viability % of combination)” value (GS257NS; Day 5) was 1.643. For the same compound, the “enhancement factor (viability % of most effective monotherapy divided by viability % of combination)” value (GS257NS; Day 8) was 1.590, the “enhancement factor (viability % of most effective monotherapy divided by viability % of combination)” value (GS261NS; Day 5) was 1.392 and the “enhancement factor (viability % of most effective monotherapy divided by viability % of combination)” value (GS261NS; Day 8) was 2.253. The “enhancement factor (viability % of most effective monotherapy divided by viability % of combination)” value (GS279coreNS) was 5.962, the “enhancement factor (viability % of most effective monotherapy divided by viability % of combination)” value (GS279periNS; Day 5) was 1.943 and the “enhancement factor (viability % of most effective monotherapy divided by viability % of combination)” value (GS279periNS; Day 8) was 5.488. The “enhancement factor (viability % of most effective monotherapy divided by viability % of combination)” value (GS281NS; Day 5) was 1.480, the “enhancement factor (viability % of most effective monotherapy divided by viability % of combination)” value (GS281NS; Day 8) was 4.353 and the “enhancement factor (viability % of most effective monotherapy divided by viability % of combination)” value (GS289NS; Day 5) was 2.519. The “enhancement factor (viability % of most effective monotherapy divided by viability % of combination)” value (GS289NS; Day 8) was 3.535, the “enhancement factor (viability % of most effective monotherapy divided by viability % of combination)” value (GS304NS; Day 5) was 4.406 and the “enhancement factor (viability % of most effective monotherapy divided by viability % of combination)” value (GS304NS; Day 8) was 5.405. The “enhancement factor (viability % of most effective monotherapy divided by viability % of combination)” value (GS323periNS) was 1.656, the “enhancement factor (viability % of most effective monotherapy divided by viability % of combination)” value (GS324coreNS; Day 5) was 3.192 and the “enhancement factor (viability % of most effective monotherapy divided by viability % of combination)” value (GS324coreNS; Day 8) was 9.253. The “enhancement factor (viability % of most effective monotherapy divided by viability % of combination)” value (GS359NS; Day 5) was 4.343, the “enhancement factor (viability % of most effective monotherapy divided by viability % of combination)” value (GS359NS; Day 8) was 5.512 and the “enhancement factor (viability % of most effective monotherapy divided by viability % of combination)” value (GS365NS; Day 5) was 2.914. For the same compound, the “enhancement factor (viability % of most effective monotherapy divided by viability % of combination)” value (GS365NS; Day 8) was 3.253.
